In patent publication US8350026B2, “VEGF-2 receptor and protein tyrosine kinase inhibitors and pharmaceutical use thereof” (Leo Pharma A/S, priority 2008, dated 2013):

Legend:
[1] = Metabolic stability in human liver microsomes (HLM); assay type: in vitro ADME; set-up: CLint scaled: dose or concentration left out as unconfirmed; conditions: both sexes, pH 7.4; for CL/F at 0.5 μM: human liver microsomes 0.5 mg protein/mL, NADPH 1 mM, test compound 0.5 μM, 37° C., 30 minutes, read-out: HLM (apparent clearance)
Procedure: The metabolic stability is tested in human liver microsomes (In Vitro Technologies, pooled mixed sexes, 20 mg/mL); a subcellular fraction containing major drug-metabolizing phase I enzymes, including the cytochrome P450 (CYP) family and flavin monooxygenases (FMO). The apparent clearance (mL/min/kg) is calculated as a measurement of test compound elimination from the liver.
Procedure: A human microsome incubation mixture (0.5 mg microsomal protein/mL) in phosphate buffer (pH 7.4, 100 mM KH2PO4/10 mM MgCl2) is mixed with NADPH (1 mM). The mixture is pre-heated (7 min) to 37° C., test compound (0.5 μM) is added, and the mixture is incubated for 30 minutes. Incubations are run in duplicate and performed by a Tecan RSP. Samples are withdrawn at 0, 5, 10, 20, and 30 min and mixed with methanol containing internal standard to terminate all enzyme activity and precipitate proteins. […] Samples are analysed by LC-MS/MS.
Data analysis: The logarithm of the peak area ratios of test compound to internal standard versus incubation time is plotted in a graph. The rate constant (k) of test compound depletion is calculated from the linear part of the curve (Eq. 1) and the half-time (t1/2) is calculated from the slope (Eq. 2). Rate constant(k)(min^−1)=−slope Eq. 1 Half-time(t1/2)(min)=ln 2/k Eq. 2
Clint(mL/min/mg protein)=k/Protein concentration Eq. 3

[2] = target: T1, VEGFR-2 (KDR) (Homo sapiens, UniProt P35968); test: KDR Assay - HTRF KinEASE-TK (in vitro KDR inhibition); assay type: biochemical; conditions: ATP 100 μM, 15 minutes at rt
T1 construct: purchased Millipore 14-630
Procedure: KDR Assay—HTRF KinEASE-TK
The compounds to be tested were dissolved in DMSO at 10 mM, stored at −20° C. and protected from light. The maximum concentration of DMSO in the in vitro assay was 0.75%. Control samples received the same concentration of solvent as the samples treated with the test compounds.
For the kinase assays, the HTRF KinEase™-TK kit (CisBio (#62TKOPEJ) was used. All components in HTRF KinEase™-TK kit were handled according to suppliers description. Briefly, DMSO stock solution of compounds (100% DMSO) were prediluted to 6% DMSO in 50 mM Hepesbuffer+0.05% BSA (Sigma Aldrich (A3294)) before transferring 1 μl to a 384-well Proxyplate (Perkin Elmer (#6008289) at RT. Kinase Substrate (2 μL, CisBio) was added to Proxyplate with compound. Enzyme mix (5 μL, Millipore (14-630)) with ATP (100 μM, Sigma Aldrich (A7699)), MgCl2 (5 mM; Sigma Aldrich M1028) and SEB (50 nM, CisBio) was added to start the reaction. The plates were incubated for 15 minutes at rt. The assay was stopped by addition of Detection mix (4 μL, CisBio) and plates were sealed and spun for 1 min at 1000 rpm. The plates were incubated in darkness over night at rt. The plates were read on an Envision (Perkin Elmer) plate reader. Signal from two wave lengths (665 and 620 nm) upon excitation at 340 nm in accordance to manufactures instructions. Briefly, fluorescence was measured for 400 μs between flashes after a delay time of 400 μs. The background measured in the absence of enzyme was subtracted from all samples. The molar concentrations that inhibited 50% of the maximal enzymatic activity (IC50) were calculated using a four-parameter sigmoid curve fit model of the dose-response curve, based on the following equation: y=((a−d)/(1+(x/c)^b))+d; where a is the minimum value, d is the maximum value, c is the IC50 value and […].

[3] = human, human liver microsomes, HLM assay reference compounds, read-out: intrinsic clearance values of HLM assay reference compounds

T1 sequence (P35968 790-1356 limits assumed): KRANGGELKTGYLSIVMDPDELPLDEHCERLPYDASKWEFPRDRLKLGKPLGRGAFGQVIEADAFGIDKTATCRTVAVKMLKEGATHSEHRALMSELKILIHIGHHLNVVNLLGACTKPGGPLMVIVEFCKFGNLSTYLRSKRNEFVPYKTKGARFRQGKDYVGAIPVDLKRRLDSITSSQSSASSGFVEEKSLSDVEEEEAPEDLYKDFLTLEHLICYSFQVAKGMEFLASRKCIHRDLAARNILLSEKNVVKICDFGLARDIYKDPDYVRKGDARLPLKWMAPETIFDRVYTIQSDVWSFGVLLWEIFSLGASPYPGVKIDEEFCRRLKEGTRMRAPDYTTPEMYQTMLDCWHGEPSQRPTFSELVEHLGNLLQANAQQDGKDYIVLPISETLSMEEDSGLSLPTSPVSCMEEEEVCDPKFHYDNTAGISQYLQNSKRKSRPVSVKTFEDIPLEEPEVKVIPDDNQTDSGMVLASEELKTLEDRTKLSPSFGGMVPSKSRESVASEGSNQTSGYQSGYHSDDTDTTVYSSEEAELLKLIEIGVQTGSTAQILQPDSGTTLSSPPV

Compound | CLint scaled [1, 3] | CL/F at 0.5 μM [1] | IC50 [2] | CLint scaled at 0.5 μM [1, 3]
Cc1ncc2n1-c1ccc(Cl)cc1C(c1ccccc1F)=NC2 [Midazolam, reference compound] | > 200 mL/min/kg |  |  | 
O=C(Nc1cc(CNc2ccccc2C(=O)NCCC2CCCC2)ccn1)c1ccco1 [Compound 105, Furan-2-carboxylic acid (4-{[2-(2-cyclopentyl-ethylcarbamoyl)-phenylamino]-methyl}-pyridin-2-yl)-amide] |  | > 200 mL/min/kg | 43 nM | 
O=C(Nc1cc(CNc2ccccc2C(=O)NCCC2=CCCCC2)ccn1)c1ccco1 [Compound 108, Furan-2-carboxylic acid (4-{[2-(2-cyclohex-1-enyl-ethylcarbamoyl)-phenylamino]-methyl}-pyridin-2-yl)-amide] |  | > 200 mL/min/kg | 44 nM | 
CCC(CC)CCNC(=O)c1ccccc1NCc1ccnc(NC(=O)c2ccco2)c1 [Compound 109, Furan-2-carboxylic acid (4-{[2-(3-ethyl-pentylcarbamoyl)-phenylamino]-methyl}-pyridin-2-yl)-amide] |  | > 200 mL/min/kg | 53 nM | 
CC(C)(C)CCNC(=O)c1ccccc1NCc1ccnc(NC(=O)c2ccco2)c1 [Compound 107, Furan-2-carboxylic acid (4-{[2-(3,3-dimethyl-butylcarbamoyl)-phenylamino]-methyl}-pyridin-2-yl)-amide] |  | > 200 mL/min/kg | 39 nM | 
CC(C)CCCNC(=O)c1ccccc1NCc1ccnc(NC(=O)c2ccco2)c1 [Compound 106, Furan-2-carboxylic acid (4-{[2-(4-methyl-pentylcarbamoyl)-phenylamino]-methyl}-pyridin-2-yl)-amide] |  | > 200 mL/min/kg | 17 nM | 
CCC(CC)CCNC(=O)c1ccccc1NCc1ccnc(NC(C)=O)c1 [Compound 103, 2-[(2-Acetylamino-pyridin-4-ylmethyl)-amino]-N-(3-ethyl-pentyl)-benzamide] |  | > 200 mL/min/kg | 19 nM | 
CCC(CC)CCNC(=O)c1ccccc1NCc1ccnc(NC(=O)c2cnco2)c1 [Compound 104, Oxazole-5-carboxylic acid (4-{[2-(3-ethyl-pentylcarbamoyl)-phenylamino]-methyl}-pyridin-2-yl)-amide] |  | 120 mL/min/kg | 15 nM | 
COC(=O)Nc1cc(CNc2ccccc2C(=O)NCCC(C)(C)C)ccn1 [Compound 101, (4-{[2-(3,3-Dimethyl-butylcarbamoyl)-phenylamino]-methyl}-pyridin-2-yl)-carbamic acid methyl ester] |  | 135 mL/min/kg | 11 nM | 
CC(=O)CC(c1ccccc1)c1c(O)c2ccccc2oc1=O (centres unmarked) [Warfarin, reference compound] |  |  |  | < 10 mL/min/kg
CC(=O)Nc1cc(CNc2ccccc2C(=O)NCCC2CCCC2)ccn1 [Compound 102, 2-[(2-Acetylamino-pyridin-4-ylmethyl)-amino]-N-(2-cyclopentyl-ethyl)-benzamide] |  | > 200 mL/min/kg | 8 nM | 
